From PubChem BioAssay AID2060493 (Molecular Pharmacology Branch, DTP, NCI, 2025)

System: 616215-338-R-J1-PDC tumor spheroids, viability
Assay: Anticancer human tumor 616215-338-R-J1-PDC patient-derived colon adenocarcinoma cell line growth inhibition [GQUAD]
Details: spheroids with HUVEC and MSC; for IC50: curve of first compound; for viability, T/C: stronger effect = lower value
Summary of the method: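 Multi-cell-type spheroids of tumor cells with HUVEC and mesenchymal stem cells, treated with drug combinations. Concentrations descend in half-log steps from near clinical Cmax, or from 10 microM where Cmax is unknown; viability read-out.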

[1] = second compound 0.0316 µM, first compound 0.0316 µM
[2] = second compound 0.0316 µM, first compound 0.1 µM
[3] = second compound 0.0316 µM, first compound 0.316 µM
[4] = second compound 0.0316 µM, first compound 1 µM
[5] = second compound 0.0316 µM, first compound 3.16 µM
[6] = second compound 0.0316 µM, first compound 10 µM
[7] = second compound 0.1 µM, first compound 0.0316 µM
[8] = second compound 0.1 µM, first compound 0.1 µM
[9] = second compound 0.1 µM, first compound 0.316 µM
[10] = second compound 0.1 µM, first compound 1 µM
[11] = second compound 0.1 µM, first compound 3.16 µM
[12] = second compound 0.1 µM, first compound 10 µM
[13] = second compound 0.316 µM, first compound 0.0316 µM
[14] = second compound 0.316 µM, first compound 0.1 µM
[15] = second compound 0.316 µM, first compound 0.316 µM
[16] = second compound 0.316 µM, first compound 1 µM
[17] = second compound 0.316 µM, first compound 3.16 µM
[18] = second compound 0.316 µM, first compound 10 µM
[19] = second compound 1 µM, first compound 0.0316 µM
[20] = second compound 1 µM, first compound 0.1 µM
[21] = second compound 1 µM, first compound 0.316 µM
[22] = second compound 1 µM, first compound 1 µM
[23] = second compound 1 µM, first compound 3.16 µM
[24] = second compound 1 µM, first compound 10 µM
[25] = second compound 3.16 µM, first compound 0.0316 µM
[26] = second compound 3.16 µM, first compound 0.1 µM
[27] = second compound 3.16 µM, first compound 0.316 µM
[28] = second compound 3.16 µM, first compound 1 µM
[29] = second compound 3.16 µM, first compound 3.16 µM
[30] = second compound 3.16 µM, first compound 10 µM
[31] = second compound 10 µM, first compound 0.0316 µM
[32] = second compound 10 µM, first compound 0.1 µM
[33] = second compound 10 µM, first compound 0.316 µM
[34] = second compound 10 µM, first compound 1 µM
[35] = second compound 10 µM, first compound 3.16 µM
[36] = second compound 10 µM, first compound 10 µM
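Note: spheroids exposed to agents for 7 days before readout.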
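Throughout, for viability, T/C: percent viability relative to DMSO vehicle control wells taken as 100%.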

`CCCS(=O)(=O)Nc1ccc(F)c(C(=O)c2c[nH]c3ncc(-c4ccc(Cl)cc4)cc23)c1F` + CN(C)c1ccc(Nc2c3ccc(NC(=O)CCN4CCCC4)cc3nc3cc(NC(=O)CCN4CCCC4)ccc23)cc1 was tested, and the IC50 (second compound 0.0316 µM) was 5560 nM, the IC50 (second compound 0.1 µM) was 5390 nM and the IC50 (second compound 0.316 µM) was 5390 nM. For the same molecule, the IC50 (second compound 1 µM) was 5910 nM, the IC50 (second compound 3.16 µM) was 5180 nM and the IC50 (second compound 10 µM) was 3790 nM. For the same molecule, the viability, T/C [1] was 103%, the viability, T/C [2] was 110% and the viability, T/C [3] was 108%. The viability, T/C [4] was 105%, the viability, T/C [5] was 94.3% and the viability, T/C [6] was 3.74%. It also gave a viability, T/C [7] of 101%, a viability, T/C [8] of 92.6% and a viability, T/C [9] of 112%. The viability, T/C [10] was 94.6%, the viability, T/C [11] was 89.8% and the viability, T/C [12] was 3.81%. The viability, T/C [13] was 105%, the viability, T/C [14] was 96.5% and the viability, T/C [15] was 99.7%. The viability, T/C [16] was 92%, the viability, T/C [17] was 89.3% and the viability, T/C [18] was 4.92%. For the same molecule, the viability, T/C [19] was 112%, the viability, T/C [20] was 88.7% and the viability, T/C [21] was 89.1%. The viability, T/C [22] was 100%, the viability, T/C [23] was 97.3% and the viability, T/C [24] was 10.3%. The viability, T/C [25] was 101%, the viability, T/C [26] was 99.4% and the viability, T/C [27] was 105%. For the same molecule, the viability, T/C [28] was 85.4%, the viability, T/C [29] was 84.9% and the viability, T/C [30] was 7.85%. The viability, T/C [31] was 88.9%, the viability, T/C [32] was 73.8% and the viability, T/C [33] was 94%. It also gave a viability, T/C [34] of 88%, a viability, T/C [35] of 58.4% and a viability, T/C [36] of 5.74%.

For `Cc1[nH]c2ccccc2c1CCNCc1ccc(/C=C/C(=O)NO)cc1` + CN(C)c1ccc(Nc2c3ccc(NC(=O)CCN4CCCC4)cc3nc3cc(NC(=O)CCN4CCCC4)ccc23)cc1, the IC50 (second compound 0.0316 µM) was 174 nM, the IC50 (second compound 0.1 µM) was 132 nM and the IC50 (second compound 0.316 µM) was 134 nM. For the same molecule, the IC50 (second compound 1 µM) was 118 nM, the IC50 (second compound 3.16 µM) was 90.8 nM and the IC50 (second compound 10 µM) was 66.1 nM. For the same molecule, the viability, T/C (second compound 0.0316 µM, first compound 0.000999 µM) was 104%, the viability, T/C (second compound 0.0316 µM, first compound 0.00316 µM) was 102% and the viability, T/C (second compound 0.0316 µM, first compound 0.00999 µM) was 104%. The viability, T/C [1] was 107%, the viability, T/C (second compound 0.0316 µM, first compound 0.0999 µM) was 83.1% and the viability, T/C [3] was 14.2%. For the same molecule, the viability, T/C (second compound 0.1 µM, first compound 0.000999 µM) was 93.1%, the viability, T/C (second compound 0.1 µM, first compound 0.00316 µM) was 99.5% and the viability, T/C (second compound 0.1 µM, first compound 0.00999 µM) was 104%. For the same molecule, the viability, T/C [7] was 88.8%, the viability, T/C (second compound 0.1 µM, first compound 0.0999 µM) was 61.2% and the viability, T/C [9] was 15.8%. For the same molecule, the viability, T/C (second compound 0.316 µM, first compound 0.000999 µM) was 101%, the viability, T/C (second compound 0.316 µM, first compound 0.00316 µM) was 103% and the viability, T/C (second compound 0.316 µM, first compound 0.00999 µM) was 113%. It also gave a viability, T/C [13] of 104%, a viability, T/C (second compound 0.316 µM, first compound 0.0999 µM) of 62.7% and a viability, T/C [15] of 12.3%. The viability, T/C (second compound 1 µM, first compound 0.000999 µM) was 113%, the viability, T/C (second compound 1 µM, first compound 0.00316 µM) was 93.8% and the viability, T/C (second compound 1 µM, first compound 0.00999 µM) was 105%. For the same molecule, the viability, T/C [19] was 86%, the viability, T/C (second compound 1 µM, first compound 0.0999 µM) was 57% and the viability, T/C [21] was 7.13%. The viability, T/C (second compound 3.16 µM, first compound 0.000999 µM) was 102%, the viability, T/C (second compound 3.16 µM, first compound 0.00316 µM) was 96.8% and the viability, T/C (second compound 3.16 µM, first compound 0.00999 µM) was 87.8%. It also gave a viability, T/C [25] of 92%, a viability, T/C (second compound 3.16 µM, first compound 0.0999 µM) of 46.2% and a viability, T/C [27] of 12.2%. For the same molecule, the viability, T/C (second compound 10 µM, first compound 0.000999 µM) was 92.9%, the viability, T/C (second compound 10 µM, first compound 0.00316 µM) was 93% and the viability, T/C (second compound 10 µM, first compound 0.00999 µM) was 77.7%. It also gave a viability, T/C [31] of 70.3%, a viability, T/C (second compound 10 µM, first compound 0.0999 µM) of 39.3% and a viability, T/C [33] of 0.37%.

`O=C(NO)c1cnc(N2CCN(S(=O)(=O)c3ccc4ccccc4c3)CC2)nc1` + CN(C)c1ccc(Nc2c3ccc(NC(=O)CCN4CCCC4)cc3nc3cc(NC(=O)CCN4CCCC4)ccc23)cc1 was tested, and the IC50 (second compound 0.0316 µM) was 324 nM, the IC50 (second compound 0.1 µM) was 322 nM and the IC50 (second compound 0.316 µM) was 255 nM. The IC50 (second compound 1 µM) was 312 nM, the IC50 (second compound 3.16 µM) was 293 nM and the IC50 (second compound 10 µM) was 220 nM. For the same molecule, the viability, T/C [1] was 104%, the viability, T/C [2] was 97.5% and the viability, T/C [3] was 51.4%. The viability, T/C [4] was 1.08%, the viability, T/C [5] was 0.1% and the viability, T/C [6] was 0.1%. The viability, T/C [7] was 105%, the viability, T/C [8] was 107% and the viability, T/C [9] was 50.8%. It also gave a viability, T/C [10] of 0.65%, a viability, T/C [11] of 0.04% and a viability, T/C [12] of 0.07%. It also gave a viability, T/C [13] of 99.6%, a viability, T/C [14] of 103% and a viability, T/C [15] of 38.2%. For the same molecule, the viability, T/C [16] was 0.54%, the viability, T/C [17] was 0.02% and the viability, T/C [18] was 0.06%. It also gave a viability, T/C [19] of 96.5%, a viability, T/C [20] of 98.1% and a viability, T/C [21] of 49.5%. It also gave a viability, T/C [22] of 0.3%, a viability, T/C [23] of 0.03% and a viability, T/C [24] of 0.07%. It also gave a viability, T/C [25] of 89.9%, a viability, T/C [26] of 93.7% and a viability, T/C [27] of 47%. For the same molecule, the viability, T/C [28] was 0.25%, the viability, T/C [29] was 0.07% and the viability, T/C [30] was 0.1%. For the same molecule, the viability, T/C [31] was 101%, the viability, T/C [32] was 80.5% and the viability, T/C [33] was 37.7%. The viability, T/C [34] was 0.24%, the viability, T/C [35] was 0.16% and the viability, T/C [36] was 0.17%.
